Here are results for 1 molecule from ChEMBL document CHEMBL3745672, “Novel compounds reducing IRS-1 serine phosphorylation for treatment of diabetes” (Bioorg Med Chem Lett, 2016).

For the experiment, the target named is Receptor tyrosine-protein kinase erbB-2 (Homo sapiens) (UniProt P04626). The experiment is described as follows: Inhibition of ERBB2 (unknown origin) at 1 uM.

Usually inhibition stands for the drop in the measured response relative to a control, in per cent. A low value points to a response near the control.

Receptor tyrosine-protein kinase erbB-2 (Homo sapiens), sequence (P04626 whole entry): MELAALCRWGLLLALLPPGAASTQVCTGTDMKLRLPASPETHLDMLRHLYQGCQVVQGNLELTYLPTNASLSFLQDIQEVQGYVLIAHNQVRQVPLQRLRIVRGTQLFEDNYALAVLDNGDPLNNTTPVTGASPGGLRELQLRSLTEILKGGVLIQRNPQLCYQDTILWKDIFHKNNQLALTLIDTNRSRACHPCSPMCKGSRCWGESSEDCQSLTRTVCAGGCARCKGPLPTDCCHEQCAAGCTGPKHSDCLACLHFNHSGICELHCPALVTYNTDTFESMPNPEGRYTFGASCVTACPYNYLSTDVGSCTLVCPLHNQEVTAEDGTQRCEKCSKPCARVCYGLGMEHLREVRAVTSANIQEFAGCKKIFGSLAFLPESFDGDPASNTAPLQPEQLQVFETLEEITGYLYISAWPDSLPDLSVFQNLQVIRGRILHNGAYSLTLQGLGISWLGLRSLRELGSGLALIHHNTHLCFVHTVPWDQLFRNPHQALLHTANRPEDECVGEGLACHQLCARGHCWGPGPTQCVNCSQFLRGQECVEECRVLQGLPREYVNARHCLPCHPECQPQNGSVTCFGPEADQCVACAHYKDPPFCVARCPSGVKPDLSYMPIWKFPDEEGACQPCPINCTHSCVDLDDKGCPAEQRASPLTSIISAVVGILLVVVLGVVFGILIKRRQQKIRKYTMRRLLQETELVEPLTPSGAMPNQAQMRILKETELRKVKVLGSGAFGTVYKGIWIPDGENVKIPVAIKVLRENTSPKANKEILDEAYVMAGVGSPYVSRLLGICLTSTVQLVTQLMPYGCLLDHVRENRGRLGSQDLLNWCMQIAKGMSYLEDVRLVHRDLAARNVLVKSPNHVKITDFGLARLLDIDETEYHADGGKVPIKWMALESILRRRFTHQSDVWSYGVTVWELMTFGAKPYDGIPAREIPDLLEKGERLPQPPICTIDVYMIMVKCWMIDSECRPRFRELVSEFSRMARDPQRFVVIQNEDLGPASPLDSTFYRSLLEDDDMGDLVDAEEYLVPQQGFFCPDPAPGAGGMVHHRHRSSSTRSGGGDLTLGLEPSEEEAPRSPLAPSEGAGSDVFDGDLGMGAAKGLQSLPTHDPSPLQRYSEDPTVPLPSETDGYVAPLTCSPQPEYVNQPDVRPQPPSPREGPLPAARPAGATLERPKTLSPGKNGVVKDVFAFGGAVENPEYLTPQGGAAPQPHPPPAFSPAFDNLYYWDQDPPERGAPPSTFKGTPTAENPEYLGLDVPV

`Cn1c(=O)c(Oc2ccc(F)cc2F)cc2cnc(NC3CCN(S(N)(=O)=O)CC3)nc21` gave an inhibition of 4%.
